Source: patent US11066638B2 (priority 2016, dated 2021)
Converted amounts (≈) assume the structure as drawn. Where two headings read alike, the source gives them in different places.

Key:
[1] = test system: Listeria monocytogenes; experiment: microbe, parasite or virus in culture; settings: 18 h, read-out: minimum inhibitory concentration (MIC)
Method: (§1) Specifically, Listeria monocytogenes, a gram-positive bacterium, was cultured in a brain-heart infusion (BHI) medium at 7° C. and 200 rpm under shaking conditions overnight, and then the degree of bacterial growth was determined by measuring optical density at 600 nm using a Biochrom Libra S22 spectrophotometer.

[2] = test system: Listeria monocytogenes; settings: 18 hours
[3] = test system: Listeria monocytogenes; settings: for colony formation of bacterial ghosts plated on BHI agar media: MIC
Method: Specifically, a BHI liquid medium was inoculated with Listeria, and incubated for 72 hours. After incubation, centrifugation was performed at 10,000 g for 10 minutes to obtain the cultured Listeria. […] Listeria was obtained at 15, 30, 45, 60 and 90 minutes after the beginning of culture and the lysis rate was measured.

[4] = test system: Listeria monocytogenes; settings: BHI liquid medium, 10^6 CFU/ml, 37° C., 18 hours, optical density at 600 nm
Method: as §1

[5] = treated with 6.25 mg/ml (MIC), plated without dilution, 37° C.

| SMILES | MIC [1] [µg/mL] | colony formation on BHI agar medium ([2]; treated with 3.125 mg/ml, diluted to a dilution factor of 1/10, 37° C.) | colony formation on BHI agar medium [2, 5] | colony formation of bacterial ghosts plated on BHI agar media ([3]; ghosts prepared from 15 minutes after treatment) | lysis rate of gram-positive bacteria ([3]; at about 15 minutes after the MIC has been applied) [%] | minimum inhibitory concentration (MIC) [4] [µg/mL] | colony formation on BHI agar medium ([2]; treated with 3.125 mg/ml, plated without dilution, 37° C.) | time to formation of bacterial ghosts after treatment ([3]; MIC 6.25 mg/ml, 37° C., 10^6 CFU/ml Listeria in PBS) | colony formation of bacterial ghosts plated on BHI agar media ([3]; ghosts prepared from 10 minutes after treatment) |
| --- | --- | --- | --- | --- | --- | --- | --- | --- | --- |
| Cl [hydrochloric acid] | 6250 (≈ 171 mM) | tens of colonies were also formed | no viable colony was formed | colonies were not formed | 100 | – | – | – | – |
| [Na+].[OH-] [sodium hydroxide] | – | – | no viable colony was formed | – | – | 6250 | thousands of colonies were formed | about 10 minutes | colonies were not formed |
